From the NIST ThermoML archive (doi:10.1021/je060339m)

Details: Liquid

CCOC(C)=O [ethyl acetate]
mass density [kg/m3]
Details	298.15 K	303.15 K	308.15 K	313.15 K	318.15 K	323.15 K	328.15 K	333.15 K	338.15 K	343.15 K
100 kPa	894	887.6	881.4	875.2	868.8	862.7	856.4	850.4	844	837.5
1000 kPa	894.7	888.5	882.3	876.1	869.8	864	857.8	851.7	845.4	839.1
2000 kPa	895.7	889.5	883.3	877.2	871	865.1	859.2	853	846.8	840.6
3000 kPa	896.7	890.5	884.4	878.3	872.2	866.2	860.5	854.4	848.2	842
3800 kPa	897.4	891.3	885.3	879.2	873.1	867.1	861.5	855.4	849.3	843.2
5000 kPa	898.8	892.7	886.7	880.6	874.5	868.6	862.5	856.8	850.8	844.5
10000 kPa	903.4	897.5	891.7	885.8	880	874.2	868.4	862.9	857.1	851.2
15000 kPa	907.7	902	896.4	890.7	885.1	879.4	873.9	868.5	863	–
20000 kPa	912	906.3	900.9	895.4	889.8	884.3	879	873.8	868.5	–
25000 kPa	916.1	910.7	905.4	899.8	894.5	889.2	884.1	879	873.9	–
30000 kPa	921.1	915.9	910.7	905.3	900.1	895	890.1	885.2	880.3	–
35000 kPa	926.3	921.2	916.2	910.9	905.9	900.9	896.2	891.4	886.7	–
